Data on 3 compounds can be found in patent publication US9809604B2, “DGAT1 inhibitor and preparation method and use thereof” (Qingdao Huanghai Pharmaceutical Co., Ltd., priority 2013, dated 2017).

Data set [1] is described as follows: Diet induced obesity in mice. Type of data set: in vivo. The note with it: DIO mice. The procedure: (2) Diet Induced Obesity in Mice
Male C57bl/6J mice (6 weeks) were individually housed in hanging wire cages at 20-25° C. with a 12:12 hour light:dark cycle (Humidity: 40˜70%). After one week acclimation, the mice are fed with high fat pelleted diet (D12492i, Research Diets, Inc) and fresh water, ad libitum. Typically; C57BL/6J male mice become obese, and reach 40-50 g after 12-14 weeks of high fat diet treatment.
Animals accept oral gavages acclimation for two weeks. Then next, they are dosed with test articles or vehicle (bid) accordingly for 7 day. Food intake and body weight are recorded every day. Data are graphed by Graph Pad Prism 5.0 and evaluated using SPSS, p<0.05 is considered to be statistically significant.

The target in data set [2] is T1, DGAT1 (Homo sapiens, UniProt O75907).
T1 sequence (O75907 1-488): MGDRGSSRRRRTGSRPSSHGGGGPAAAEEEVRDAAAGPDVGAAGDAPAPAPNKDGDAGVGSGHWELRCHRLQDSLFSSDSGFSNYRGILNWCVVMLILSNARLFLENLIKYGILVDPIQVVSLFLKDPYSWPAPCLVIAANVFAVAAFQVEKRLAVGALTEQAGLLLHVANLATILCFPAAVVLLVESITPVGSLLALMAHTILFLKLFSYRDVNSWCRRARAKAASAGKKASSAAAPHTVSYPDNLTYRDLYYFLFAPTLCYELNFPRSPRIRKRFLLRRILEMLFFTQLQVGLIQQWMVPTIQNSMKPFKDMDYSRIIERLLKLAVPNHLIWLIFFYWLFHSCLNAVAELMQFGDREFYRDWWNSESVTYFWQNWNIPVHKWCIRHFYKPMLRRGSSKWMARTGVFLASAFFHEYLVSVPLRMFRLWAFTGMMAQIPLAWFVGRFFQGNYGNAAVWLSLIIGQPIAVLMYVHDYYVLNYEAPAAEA
The data set is described as follows: Human DGAT1 IC50 enzyme assay (Flashplate, 14C-labeled acyl-CoA). Also noted: made in house. Type of data set: biochemical. The essentials: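 Recombinant human DGAT1 with diacylglycerol and 14C-labeled acyl-CoA substrates; 14C-triglyceride product captured on phospholipid-coated Flashplate and counted. IC50 from inhibition of product signal; Ki derived via Cheng-Prusoff, Ki=IC50/(1+[S]/Km).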

A short description of data set [3]: Plasma pharmacokinetics in male SD rats. The note with it: rat; for AUC(0-t) / half-life / Vd / bioavailability: male, SD, plasma; for AUC(0-t): read-out: AUC0-1 (ng · n/mL); for half-life: read-out: T1/2 (b) (converted); for Vd: intravenous, 2 mg/kg, read-out: Vdss; for bioavailability: oral, 10 mg/kg. Type of data set: in vivo. The procedure:
(3) Pharmacokinetics of Test Compounds
The purpose of this study is to determine the plasma pharmacokinetics of male SD rats. Two animals will receive a solution of test article in vehicle by single intravenous bolus via tail vein; the dosage is 2 mg/kg. Blood samples are taken at specified time points (0, 0.0833, 0.25, 0.5, 1, 2, 4, 7, 24 h) after dosing. Another two animals will receive a solution or suspension of TA in vehicle by oral gavage at 10 mg/kg. The schedule for sample collection is 0.5, 1, 2, 3, 4, 6, 24 h after dosing. A LC/MS/MS method is used to measure the concentration of test compound in plasma. Non-compartmental pharmacokinetic analysis is performed on the plasma concentration-time data. PK parameters of calculations are done using Phoenix WinNonlin. 6.2.1 software program.

Data set [4] deals with T1, DGAT1. Put plainly: In vitro assay in HEK-293 cells (13C-labeled oleic acid incorporation into TG, LC/MS/MS). The note with it: for EC50: HEK293 cells. Also noted: endogenous DGAT1-expressing catalytic ^13C-labeled oleic acid incorporate to TG; endogenous in cells; host or cells: HEK293. Type of data set: cell-based. The text has this: In Vitro Assay in HEK-293 Cells:
We treated HEK293 cells with stable isotope ^13C-labeled oleic acid and endogenous DGAT1-expressing catalytic ^13C-labeled oleic acid incorporate to TG. The extraction and separation of cell suspension is to obtain the triglycerides composition. A LC/MS/MS method is used to measure the concentration of ^13C in TG to determine catalytic reaction rate of DGAT1, then determine the compound of DGAT1 inhibition (IC50).

The next data set is described as follows: Solubility at pH 7.4. Type of data set: physicochemical. The note with it: pH 7.4, aqueous buffer; read-out: Sol pH 7.4.
In data set [5] the test system is plasma triacylglycerol levels. Put plainly: Lipid tolerance test in mice. Type of data set: in vivo. As for the experimental part:
(1) Lipid Tolerance Test in Mice:
CDI mice (30 g or so) were individually housed in hanging wire cages at 20-25° C. with a 12:12 hour light:dark cycle (Humidity: 40˜70%). The mice had ad libitum access to water. On the day of experimentation, food jars were removed from each cage 16 hours prior to rate received either vehicle or test article based on a randomization plan generated by randomization. After sixty minutes, oral administration (gavage) of corn oil at a dose volume of 6 mL/kg (time=0). Blood samples were obtained from each mouse via tail snip procedure at −0.5, 0.5, 1, 2 and 4 hours. 20 ul of blood sampling will be rapidly collected, and then is centrifuged at 7000 rpm for 10 min to determine plasma triacylglycerol levels. Triglyceride was quantitated using TG ELISA kit. All data will be analyzed using SPSS. p<0.05 is considered to be statistically significant.

Another data set deals with T2, mouse DGAT1 (Mus musculus, UniProt Q9Z2A7).
T2 construct: made in house
T2 sequence (Q9Z2A7 1-498): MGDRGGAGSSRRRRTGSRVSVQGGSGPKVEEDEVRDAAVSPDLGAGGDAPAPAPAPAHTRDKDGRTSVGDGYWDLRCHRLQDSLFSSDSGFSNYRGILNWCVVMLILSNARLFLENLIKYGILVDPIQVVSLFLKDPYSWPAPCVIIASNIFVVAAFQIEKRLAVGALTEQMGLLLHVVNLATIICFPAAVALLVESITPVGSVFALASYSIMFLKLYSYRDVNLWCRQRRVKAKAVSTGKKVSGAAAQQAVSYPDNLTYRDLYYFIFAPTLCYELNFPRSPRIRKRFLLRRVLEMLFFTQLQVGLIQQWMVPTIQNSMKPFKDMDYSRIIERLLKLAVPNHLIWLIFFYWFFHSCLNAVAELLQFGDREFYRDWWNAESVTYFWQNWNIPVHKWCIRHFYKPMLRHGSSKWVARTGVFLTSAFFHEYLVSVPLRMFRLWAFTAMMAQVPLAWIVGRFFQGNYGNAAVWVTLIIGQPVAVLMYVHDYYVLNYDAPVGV
Put plainly: Mouse DGAT1 IC50 enzymatic assay. Type of data set: biochemical. As for the experimental part: Expressing human DGAT1 enzyme, used diacylglycerol and 14C-labeled acyl-CoA as the substrate, choose PE Company Flashplate testing board to build DGAT1 enzyme reaction system. 14C-labeled acyl-CoA binds to diacylglycerol by covalent bonding after enzymology reaction, and generates the product of 14C-labeled triglyceride. 14C-labeled acyl-CoA substrate is dissolved in reaction solution and 14C-labeled triglyceride product combine with phospholipids of Flashplate plate bottom layer, thus effectively separate labeled substrates and products. The radioactive of 14C-labeled triglyceride which is combined with phospholipid layer is counted, and the potencies of DGAT-1 inhibition for the compounds are determined by calculating the IC50 values.
Mouse DGAT1 activity was determined as follows:
Mouse DGAT1 IC50 determination method: in addition to expression of mouse DGAT1, experiment method with human DGAT1 enzymatic assay is the same.

Setting [6] is: average of first and second, read-out: hDGAT1 IC50(nM) Average.
The mark [7] stands for this setting: first determination, read-out: hDGAT1 IC50(nM) First.
The mark [8] stands for this setting: second determination, read-out: hDGAT1 IC50(nM) Second.
[9] abbreviates: iv, 1.78-2.06 mg/kg as printed in each cell.

Structures are written as SMILES. Values after ≈ are worked out from the molar mass of the structure shown. Read-outs that look alike come from different tables or passages of the source.

In the case of `Cc1cc(N2CCOc3ncnc(N)c3C2=O)cc(C)c1-c1ccc2ccn(CC(F)(F)F)c(=O)c2c1` [Compound 105, 4-amino-6-(3,5-dimethyl-4-(1-oxo-2-(2,2,2-trifluoroethyl)-1,2-dihydroisoquinolin-7-yl)phenyl)-7,8-dihydropyrimido[5,4-f][1,4]oxazepin-5-(6H)-one], in data set [1] (10mpk BID), the “7 days Cumulative Body Weight Change (%)” value was −1.06% and the “7 days Cumulative Food Intake Change (%)” value is recorded as −8.56%. The concentration for half-maximal inhibition (IC50) at DGAT1 [2] (setting [6]) worked out at 31.7 nM. At DGAT1 [2] (setting [7]), the IC50 turned out to be 27 nM. The half-maximal inhibitory concentration (IC50) at DGAT1 [2] (setting [8]) is 36.4 nM. In addition, in data set [3] (setting [9]), the AUC(0-t) was 17700 ng·h/mL and the half-life was 3.81 h. The half-life in data set [3] (po, 8.94-9.33 mg/kg) is 2.93 h. Moreover, in data set [3], the Vd stood at 0.54 L/kg, the bioavailability stood at 56.8% and the “CI” value was found to be 1.96 mL/min/kg. The compound also yielded an EC50 on DGAT1 [4] of 3.64 nM. The cell activity entry at DGAT1 [4] (compared with Pradigastat) is listed as “better cell activity”. Besides, the solubility in “Solubility at pH 7.4” worked out at 70 µM (≈ 35.7 µg/mL). The “Inhibtion % @ 2 h 1 MPK PO” value in data set [5] is recorded as 118% inh. In addition, at mouse DGAT1, the half-maximal inhibitory concentration (IC50) came out at 33.6 nM.
As to `Cc1cc(N2CCOc3ncnc(N)c3C2=O)cc(C)c1-c1cn(CC(F)(F)F)nc1C` [Compound 41, 4-amino-6-(3,5-dimethyl-4-(3-methyl-1-(2,2,2-trifluoroethyl)-1H-pyrazol-4-yl)phenyl)-7,8-dihydropyrimido[5,4-f][1,4]oxazepin-5(6H)-one], the “7 days Cumulative Body Weight Change (%)” value in data set [1] (10mpk BID) is −3.32%. For the same compound, in data set [1] (10mpk BID), the “7 days Cumulative Food Intake Change (%)” value is reported as −16.35%. Moreover, the half-inhibitory concentration (IC50) was 31.3 nM at DGAT1 [2] (setting [6]), 37.7 nM at DGAT1 [2] (setting [7]), 30 nM on DGAT1 [2] (setting [8]) and 12.5 nM on mouse DGAT1. For the same compound, in data set [3] (setting [9]), the AUC(0-t) was found to be 2120 ng·h/mL. Moreover, the half-life in data set [3] (po, 8.94-9.33 mg/kg) was 3.2 h. Also, the Vd in data set [3] is 1.49 L/kg. Moreover, the bioavailability in data set [3] is roughly 100%. For the same compound, the “CI” value in data set [3] is 14.4 mL/min/kg. The EC50 at DGAT1 [4] came out at 22.1 nM. Besides, the solubility in “Solubility at pH 7.4” is 187 µM (≈ 83.5 µg/mL). For the same compound, the “Inhibtion % @ 2 h 1 MPK PO” value in data set [5] worked out at 83% inh.
Regarding `O=C(O)C[C@H]1CC[C@H](c2ccc(-c3ccc(Nc4ccc(C(F)(F)F)nc4)cn3)cc2)CC1` [Pradigastat, reference compound], in data set [1] (30 mpk BID), the body weight result was “increased slight” and the food intake result is recorded as “increased slight”. Moreover, in data set [1] (30mpk BID), the “7 days Cumulative Body Weight Change (%)” value was 1.72% and the “7 days Cumulative Food Intake Change (%)” value is reported as 5.85%. For the same compound, the concentration for half-maximal inhibition (IC50) on DGAT1 [2] (setting [6]) came out at 49 nM. Moreover, the half-inhibitory concentration (IC50) on DGAT1 [2] (setting [7]) worked out at 68.2 nM. For the same compound, on DGAT1 [2] (setting [8]), the IC50 was determined as 29.7 nM. In addition, in data set [3] (setting [9]), the AUC(0-t) was 42900 ng·h/mL and the half-life is 2.19 h. Also, in data set [3] (po, 8.94-9.33 mg/kg), the half-life was 2.33 h. In data set [3], the Vd stood at 0.15 L/kg, the bioavailability came out at 14.9% and the “CI” value came out at 0.70 mL/min/kg. The compound further had a 50% effective concentration (EC50) on DGAT1 [4] of 3.65 nM. Further, in the data set “Solubility at pH 7.4”, the solubility was 22 µM (≈ 10 µg/mL). For the same compound, the “Inhibtion % @ 2 h 1 MPK PO” value in data set [5] stood at 34% inh. This compound also showed a half-inhibitory concentration (IC50) on mouse DGAT1 of 30.2 nM.

Usually IC50 stands for the midpoint of a concentration-inhibition curve. One may read the bioavailability as dose-corrected exposure relative to a reference, in per cent. Higher therefore signals much systemic uptake. A word on the EC50: it is the concentration that produces a half-maximal response. Low values mean higher potency in that assay, high ones lower potency in that assay.
